Results: EP0091090A2, “Bipyridine substituted imidazolidene copper complex and its use in food-producing animals, and bipyridine, 2,2'-(2-imidazolidinylidene) di-copper complex and use in animals” (INTERNATIONAL MINERALS & CHEMICAL CORPORATION, priority 1982, dated 1983)
“And” between values parts separate entries of the source, which are not always exact repeats. Equal entries are not always repeated. Where two headings read alike, the source gives them in different places.

How the values were obtained:
[1] = tested on: rumen fluid batch culture; assay: Rumen fluid batch culture test: volatile fatty acid, gas (CH4 + H2), protein and amino acid accumulation (Example 2); assay type: cell-based, steers
Protocol: The above Formula IV composition was tested to determine its effectiveness as a feed additive for ruminants. The initial tests were in rumen fluid batch culture systems to determine the effect of the compound on volatile fatty acid/methane ratios (VFA/CH4). […] Test Procedure: A 50/50 mixture of ground corn and ground alfalfa was used as the substrate for the subject rumen fluid batch culture test. The compound (Formula IV ) was present in the rumen fluid in three separate test samples at 8.33, 25 and 75 ppm, respectively. On day 1, rumen fluid was obtained from mature fistulated steers on 50/50 concentrate/roughage diets. The rumen fluid (RF) was strained through three layers of gauze cloth and equilibrated with C02 gas. Wheaton serum vials (125 ml) were prepared ahead with 20 ml continuous batch buffer and 100 mg 50/50 ground corn/ground alfalfa. Controls and compounds (dissolved in acetone) were set up according to desired levels. The vials were kept under C02 gas until 20 ml of the strained RF was added. The vials were sealed and incubated at 39°C for 24 hours in a hot water bath. On successive days, gas samples (0.1 ml) were drawn for gas chromatography analysis before transferring 20 ml of the batch culture to another vial containing 20 ml of buffer, 100 mg substrate, and the corresponding compound. The remaining 20 ml was inoculated with 2 ml 6N HC1 and centrifuged at 15,000 rpm for 15 minutes. Ether extracts were prepared for volatile fatty acid (VFA) analysis. Some minor adjustments were made in the termperatures on the Hewlett-Packard 5750 Gas-Liquid Chromatograph used for VFA analysis when the glass column used was changed from 1/4 inch diameter to 1/8 inch diameter. Injection Port = 220°C Column Oven = 170°C Flame Detector = 250°C Only 4 minutes was needed to record the sample instead of the previous 7 minutes.

rumen microflora = assay: Batch culture assay for the degradation of starch (Example 3); assay type: cell-based, steers
Source text: The subject Formula ^IV compound was also compared to monensin in another rumen fluid batch culture test as set forth below. The test was designed to screen compounds for inhibition of starch breakdown by the rumen microflora. […] It is considered more desirable to avoid degradation of starch in the rumen so that it is passed on into the abomasum where it can be digested more efficiently. […] Test Procedure: Animals - Mature fistulated steers were maintained on concentrate, roughage, or concentrate/ roughage (50/50) rations. Animals were fed twice daily at 8:00 A.M. and 4:00 P.M.
Culture Assays - Approximately two liters of rumen fluid were collected from fistulated animals with the use of a hand pump. The rumen fluid, collected in a stoppered flask, was then immediately taken to the laboratory for processing. Samples were taken at 8:00 A.M. just prior to the first feeding or at 1:00 P.M. (ca. 4-5 hours after the first feeding). Rumen fluid was strained through six layers of cotton gauze cloth into a flask that was flushed with C02 gas. The filtrate was centrifuged for 5 minutes at 100 rpm in a Sorvall centrifuge to remove large particulate material. The supernatant was again passed through six layers of gauze into a flask under C02 gas and stoppered.
Batch Culture Assay for the Degradation of Starch - Twenty-five ml of rumen fluid prepared as above was added to serum vials (Wheaton Glass, 100 ml capacity) containing 0.25-1.00% final concentration starch as an energy substrate in 25 ml batch culture assay buffer. The serum vials were sealed under C02 gas phase, and incubations were carried out for 20-24 hours at 39°C on a New Brunswick rotary shaker (250 rpm). Each experimental vial was done in triplicate. The corn starch used in degradation experiments was previously washed with distilled water several times, filtered through an 8 micron (47 mm) Millipore filter, and dried at 90°C for 24 hours.
At intervals of 0 and 24 hours, the entire contents in vials were centrifuged at 250 rpm for 5 minutes. The supernatants were carefully removed with a pipet and the remaining "starch pellets" resuspended in water and passed through borosilicate glass microfiber prefilters (Millipore AP 20-047-00). Filters were dried in an oven for 24 hours at 90°C, cooled and then weighed. The amount of starch remaining after 24 hours' incubation was compared with the amount present at 0 hours and the per cent of substrate degraded calculated.

[2] = tested on: rumen fluid batch culture; assay: Batch rumen VFA and gas production screen (Example 8); assay type: cell-based, steers
Protocol: The above Formula II composition was tested to determine its effectiveness as a feed additive for ruminants. The initial tests were in rumen fluid batch culture systems to determine the effect of the compound on volatile fatty acid/methane ratios (VFA/CH4).
A 50/50.mixture of ground corn and ground alfalfa was used as the substrate for the subject rumen fluid batch culture test. The compound (Formula II) was present in the rumen fluid at 75 ppm.
On day 1, rumen fluid was obtained from mature fistulated steers on 50/50 concentrate/roughage diets. The rumen fluid (RF) was strained through three layers of gauze cloth and equilibrated with C02 gas. Wheaton serum vials (125 ml) were prepared ahead with 20 ml continuous batch buffer and 100 mg 50/50 ground corn/ground alfalfa. Controls and compounds (dissolved in acetone) were set up according to indicated levels. The vials were kept under C02 gas until 20 ml of the strained RF was added. The vials were sealed and incubated at 39°C for 24 hours in a hot water bath. On successive days, gas samples (0.1 ml) were drawn for gas chromatography analysis before transferring 20 ml of the batch culture to another vial containing 20 ml of buffer, 100 mg substrate, and the corresponding compound. The remaining 20 ml was inoculated with 2 ml 6N HCl and centrifuged at 15,000 rpm for 15 minutes. Ether extracts were prepared for volatile fatty acid (VFA) analysis. Some minor adjustments were made in the temperatures on the Hewlett-Packard 5750 Gas-Liquid Chromatograph used for VFA analysis when the glass column used was changed from 1/2 inch diameter to 1J8 inch diameter.
About 4 minutes was needed to record the sample.
In the above tests, four control groups were run and the mean established.

[3] = Chick rye diet test system (Example 6); assay type: in vivo; settings: compared to positive control (penicillin or bacitracin)
Source text: The Formula III compound can be tested in a chick rye diet test system. […] Useful antibiotics for the positive control comparison are penicillin or bacitracin.

[4] = 75 ppm, single runs of duplicate

Compound: CC[C@@]1([C@@H]2O[C@@H]([C@H]3O[C@@](O)(CO)[C@H](C)C[C@@H]3C)C[C@@H]2C)CC[C@H]([C@]2(C)CC[C@]3(C[C@H](O)[C@@H](C)[C@@H]([C@@H](C)[C@@H](OC)[C@H](C)C(=O)O)O3)O2)O1 [Monensin, reference compound]
- AA [1]: 0.51 µmol/mL and 0.28 µmol/mL and 0.29 µmol/mL and 0.34 µmol/mL and 0.30 µmol/mL and 0.44 µmol/mL
- CH4 produced on Day 10 [1]: 49
- Caloric Value of CH4 [1]: 10.33
- Caloric Value of H2 [1]: 0
- Caloric Value of HAc [1]: 105.04
- Caloric Value of HBu [1]: 50.34
- Caloric Value of HFo [1]: 0.98
- Caloric Value of HPr [1]: 180.46
- Caloric Value of HiBu [1]: 5.11
- Caloric Value of HiVal [1]: 2.17
- Caloric Value, Total (VFA's) [1]: 344.10
- Gross Cal Remaining in Feed [1]: 364.76 cal
- H2 [1]: 0 µ Moles
- H2 produced on Day 10 [1]: 0
- HAc (acetate) produced on Day 10 [1]: 501.6
- HBu (butyrate) produced on Day 10 [1]: 96.8
- HFo (formate) produced on Day 10 [1]: 15.60
- HPr (propionate) produced on Day 10 [1]: 494.4
- HiBu (isobutyrate) produced on Day 10 [1]: 14.0
- HiVal (isovalerate) produced on Day 10 [1]: 3.2
- Total VFA's produced on Day 10 [1]: 1,125.6
- effect on starch fermentation (rumen microflora): neither monensin or lasalocid had any effect
- Acetate [2]: 7.2 Mu Moles/ml and 5.6 Mu Moles/ml
- Acetate, Mean [2]: 6.4 Mu Moles/ml
- Butyrate [2]: 7.8 Mu Moles/ml and 7.9 Mu Moles/ml
- Butyrate, Mean [2]: 7.6 Mu Moles/ml
- CH4 (%) [2]: 5.6% and 6.2%
- CH4 (%), Average [2]: 5.8%
- CH4, Percent Change [2]: -49.4%
- H2 (%) [2]: 0.0%
- H2 (%), Average [2]: 0.0%
- Propionic [2]: 20.7 Mu Moles/ml and 18.7 Mu Moles/ml
- Propionic, Mean [2]: 19.7 Mu Moles/ml
- Total [2]: 32.2 Mu Moles/ml
- Total, Mean [2]: 38.8 Mu Moles/ml

Compound: CC[C@@H](C(=O)[C@@H](C)[C@@H](O)[C@H](C)CCc1ccc(C)c(O)c1C(=O)O)[C@H]1O[C@](CC)([C@H]2CC[C@](O)(CC)[C@H](C)O2)C[C@@H]1C [lasalocid, reference compound]
- effect on starch fermentation (rumen microflora; 25 ppm): neither monensin or lasalocid had any effect

Compound: Pyridine, 2,2'-(2-imidazolidinyl- idene)di-, compound with CuCl2 (1/1) [Formula II Compound]
- acetate production ([2]; 75 ppm): depressed acetate production compared to the negative control, and was comparable to monensin
- CH4 (%), Average ([2]; 75 ppm, average): 11.0%
- H2 (%), Average ([2]; 75 ppm, average): 0.0%
- CH4, Percent Change ([2]; 75 ppm, change versus control average, 1440 min): -6.0%
- Acetate, Mean ([2]; 75 ppm, mean of duplicate): 8.0 Mu Moles/ml
- Butyrate, Mean ([2]; 75 ppm, mean of duplicate): 9.6 Mu Moles/ml
- Propionic, Mean ([2]; 75 ppm, mean of duplicate): 14.8 Mu Moles/ml
- Total, Mean ([2]; 75 ppm, mean of duplicate): 32.4 Mu Moles/ml
- CH4 (%) ([2]; 75 ppm, single runs): 11.2% and 10.8%
- H2 (%) ([2]; 75 ppm, single runs): 0.0%
- Acetate [2, 4]: 6.8 Mu Moles/ml and 9.2 Mu Moles/ml
- Butyrate [2, 4]: 8.9 Mu Moles/ml and 10.2 Mu Moles/ml
- Propionic [2, 4]: 14.6 Mu Moles/ml and 15.0 Mu Moles/ml
- Total [2, 4]: 38.4 Mu Moles/ml and 34.4 Mu Moles/ml
- activity in rumen fluid batch culture tests ([2]; compared with iron and nickel salts of Formula I): best activity
- propionate production ([2]; expected in tests to establish optimum dosage level): favorable shift to increased propionate production
- activity in chick rye diet test [3]: promising activity
